Reference: patent US20250304616A1, “NOVEL PEPT[…] AND DESIGN” (priority 2020, published 2025)
Read-outs that look alike come from different tables or passages of the source.

Tested on: recombinant rabies virus 1088 strain (1088/GLuc)
Assay: microbe, parasite or virus in culture
Type: cell-based, rabies virus in Neuro-2a cells
Conditions: read-out: Anti-rabies activity

CC(C)CC(=O)OCC1=CCN2C3CC(NC(=O)Cc4ccccc4)C1C2CN(Cc1ccccc1)C3 (stereo not shown) [12aab] showed an IC50 (Lyssavirus rabies, N2a, 72 h) of less than 10 µM.

Compound COc1ccc(CN2CC3CC4(C(=O)NCc5ccccc5)NC(=O)C3C2C4CC(C)C)cc1F (stereo not shown) [IF-801] has an IC50 (Lyssavirus rabies, N2a, 72 h) of less than 10 µM.

In the case of COc1ccc(CN2C[C@@H]3C[C@H]4C(=O)N[C@]3(C(=O)NCc3ccccc3)[C@@H]2[C@@H]4CC(C)C)cc1 (relative stereo) [IB-5, (3S, 3aS, 6R′, 7R*, 7aS*) —N-benzyl-7-isobutyl-1-(4-methoxybenzyl)-5-oxooctahydro-3@H-3,6-methanopyrrolo[3,2-b]pyridine-3a-carboxamide], the IC50 is reported as less than 10 µM.

Work on COc1ccc(CN2C[C@H]3C[C@]4(C(=O)NCc5ccccc5)NC(=O)[C@H]3[C@H]2[C@H]4CC(C)C)cc1 (relative stereo) [IF-6, (3S*, 3aR*, 6S*, 7R*, 7aR*) —N-benzyl-7-isobutyl-1-(4-methoxybenzyl)-4-oxooctahydro-6H-3,6-methanopyrrolo[3,2-c]pyridine-6-carboxamide] yielded an IC50 (Lyssavirus rabies, N2a, 72 h) of less than 10 µM.
